Tests used:
HDAC 6 = target: T1, HDAC 6 (Homo sapiens, UniProt Q9UBN7); test: HDAC 6 activity at fixed concentration (Table 2); assay type: biochemical; set-up: unit not given here; settings: compound at 50 nM
T1 sequence (Q9UBN7 1-1215): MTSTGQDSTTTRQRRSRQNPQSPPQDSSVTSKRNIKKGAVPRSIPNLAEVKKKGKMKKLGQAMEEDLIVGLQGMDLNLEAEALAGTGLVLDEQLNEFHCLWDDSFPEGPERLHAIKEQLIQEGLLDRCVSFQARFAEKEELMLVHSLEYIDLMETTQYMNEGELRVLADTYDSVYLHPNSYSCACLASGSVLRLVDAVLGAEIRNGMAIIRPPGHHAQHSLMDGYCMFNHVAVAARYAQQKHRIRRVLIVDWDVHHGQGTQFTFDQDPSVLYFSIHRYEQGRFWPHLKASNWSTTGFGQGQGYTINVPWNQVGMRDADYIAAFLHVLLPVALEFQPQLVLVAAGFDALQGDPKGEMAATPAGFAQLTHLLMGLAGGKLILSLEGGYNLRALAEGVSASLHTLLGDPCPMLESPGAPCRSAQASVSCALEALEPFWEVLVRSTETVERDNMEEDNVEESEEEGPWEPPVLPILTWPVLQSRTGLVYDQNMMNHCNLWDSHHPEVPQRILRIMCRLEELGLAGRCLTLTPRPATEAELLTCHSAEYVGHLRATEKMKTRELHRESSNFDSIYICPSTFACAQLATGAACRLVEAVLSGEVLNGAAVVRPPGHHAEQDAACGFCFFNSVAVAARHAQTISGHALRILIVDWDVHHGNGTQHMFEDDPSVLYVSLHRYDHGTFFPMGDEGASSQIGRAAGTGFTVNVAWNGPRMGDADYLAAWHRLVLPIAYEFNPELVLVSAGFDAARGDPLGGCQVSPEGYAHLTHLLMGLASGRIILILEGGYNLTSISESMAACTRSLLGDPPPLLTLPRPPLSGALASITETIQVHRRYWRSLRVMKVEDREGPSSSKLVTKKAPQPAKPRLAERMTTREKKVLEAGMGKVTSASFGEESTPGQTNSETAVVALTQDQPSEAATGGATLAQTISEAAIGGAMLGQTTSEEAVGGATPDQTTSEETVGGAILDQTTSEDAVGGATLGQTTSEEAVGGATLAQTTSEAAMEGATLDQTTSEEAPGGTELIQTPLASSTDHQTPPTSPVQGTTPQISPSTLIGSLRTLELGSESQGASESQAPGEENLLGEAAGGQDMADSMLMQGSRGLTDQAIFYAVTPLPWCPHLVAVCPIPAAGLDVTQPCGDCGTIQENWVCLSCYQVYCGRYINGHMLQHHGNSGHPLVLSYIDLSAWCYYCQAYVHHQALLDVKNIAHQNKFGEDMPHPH

PanHDAC = PanHDAC activity at fixed concentration (Table 2); assay type: biochemical; set-up: unit not given here; settings: compound at 1 uM

| melting point | HDAC 6 at 50 nM (HDAC 6) | Structure (SMILES) | PanHDAC at 1 uM (PanHDAC) |
| --- | --- | --- | --- |
| 141 to 147 °C |  | O=C(NO)[C@@H]1CCc2ccc(OCc3ccccc3Cl)cc2O1 [Compound 50d, (S)-7-((2-Chlorobenzyl)oxy)-N-hydroxychromane-2-carboxamide] |  |
| 149 to 151 °C |  | COc1ccc(COC(=O)Nc2ccc3c(c2)CCC(C(=O)NO)O3)cc1 (stereo not shown) [Compound 14j, 4-Methoxybenzyl (2-(hydroxycarbamoyl)chroman-6-yl)carbamate] |  |
| 195 to 197 °C |  | O=C(NCc1ccc(Cl)c(C(F)(F)F)c1)Nc1cccc2c1OC(C(=O)NO)CC2 (stereo not shown) [Compound 14i, 8-(3-(4-Chloro-3-(trifluoromethyl)benzyl)ureido)-N-hydroxychromane-2-carboxamide] |  |
| 149 to 151 °C |  | O=C(NO)C1CCc2cc(C#CCOc3ccc(F)cc3)ccc2O1 (stereo not shown) [Compound 25, 6-(3-(4-Fluorophenoxy)prop-1-yn-1-yl)-N-hydroxychromane-2-carboxamide] |  |
| 102 to 104 °C |  | O=C(Nc1cccc2c1OC(C(=O)NO)CC2)OCc1ccc(C(F)(F)F)cc1 (stereo not shown) [Compound 11f, 4-(Trifluoromethyl)benzyl (2-(hydroxycarbamoyl)chroman-8-yl)carbamate] |  |
| 118 to 120 °C |  | CN1CC(C(=O)NO)Oc2ccccc21 (stereo not shown) [Compound 78, N-Hydroxy-4-methyl-3,4-dihydro-2H-benzo[b][1,4]oxazine-2-carboxamide] |  |
| 177 to 179 °C |  | O=C(NO)C1CCc2cc(-c3ccc(F)cc3)ccc2O1 (stereo not shown) [Compound 44b, 6-(4-Fluorophenyl)-N-hydroxychromane-2-carboxamide] |  |
| 155 to 158 °C |  | Cn1ccc2cc(-c3ccc4c(c3)OC(C(=O)NO)CC4)ccc21 (stereo not shown) [Compound 58b, N-Hydroxy-7-(1-methyl-1H-indol-5-yl)chromane-2-carboxamide] |  |
|  | 29 | CC(C)COC(=O)Nc1cccc2c1OC(C(=O)NO)CC2 (stereo not shown) [Compound 1-30] | 0 |
|  | 7 | O=C(Nc1ccc2c(c1)CC[C@@H](C(=O)NO)O2)c1ccc(-c2ccccc2)cc1 [Compound 1-57] | 0 |
|  | 0 | O=C(NO)C1CCc2ccc(OCCOc3ccc(F)cc3)cc2O1 (stereo not shown) [Compound 1-25] | 0 |
|  | 0 | O=C(Nc1cccc2c1OC(C(=O)NO)CC2)OCc1ccccc1 (stereo not shown) [Compound 1-8] | 0 |
|  | 55 | O=C(Cc1c[nH]c2ccccc12)Nc1ccc2c(c1)CCC(C(=O)NO)O2 (stereo not shown) [Compound 1-41] | 0 |
|  | 33 | O=C(NO)C1CCc2cc(Cl)ccc2O1 (stereo not shown) [Compound 1-1] | 0 |
|  | 23 | O=C(NO)C1CCc2ccc(OCc3ccccn3)cc2O1 (stereo not shown) [Compound 1-24] | 0 |
|  | 0 | O=C(NO)[C@@H]1CCc2ccc(OCc3ccc(Cl)cc3)cc2O1 [Compound 1-59] | 0 |
|  | 31 | CN1CC(C(=O)NO)Oc2ccccc21 (stereo not shown) [Compound 1-27] | 0 |
|  | 6 | O=C(NCCc1c[nH]c2ccccc12)Nc1cccc2c1OC(C(=O)NO)CC2 (stereo not shown) [Compound 1-36] | 0 |
|  | 0 | C[C@@H]1Cc2ccccc2O[C@@H]1C(=O)NO [Compound 1-22] | 0 |
|  | 35 | O=C(NO)C1CCc2cc(CCCOc3ccc(F)cc3)ccc2O1 (stereo not shown) [Compound 1-7] | 0 |
|  | 0 | COc1ccc(CNC(=O)Nc2ccc3c(c2)CCC(C(=O)NO)O3)cc1 (stereo not shown) [Compound 1-52] | 0 |
|  | 30 | O=C(Nc1ccc(F)cc1)Nc1cccc2c1OC(C(=O)NO)CC2 (stereo not shown) [Compound 1-40] | 0 |
|  | 42 | O=C(NO)C1CCc2cc(C#CCOc3ccc(F)cc3)ccc2O1 (stereo not shown) [Compound 1-10] | 0 |
|  | 34 | O=C(NCc1cccc(S(F)(F)(F)(F)F)c1)Nc1cccc2c1OC(C(=O)NO)CC2 (stereo not shown) [Compound 1-39] | 0 |
